Values of other authors, collected in patent publication US20250275917A1, “TOPICAL FOAMABLE PHARMACEUTICAL COMPOSITION” (EUROFARMA LABORATORIOS S.A., priority 2021, published 2025).

Conditions: systemic absorption

SMILES: Nc1cc(N2CCCCC2)nc(N)[n+]1[O-] [Minoxidil]
- concentration associated with adverse effects: 20 ng/mL
